Data from patent US20110172107A1, “ASSAY FOR IDENTIFYING AGENTS THAT MODULATE EPIGENETIC SILENCING, AND AGENTS IDENTIFIED THEREBY” (FOX CHASE CANCER CENTER, priority 2008, published 2011).

What was measured:
[1] = system: silent GFP reporter in HeLa TI-C cell clones; assay: GFP reactivation in TI-C silent cell clones (FACS); type: cell-based, human; conditions: TSA treatment, FACS after 24 hours, vs DMSO control
From the text: Cells. HeLa cell populations containing silent GFP genes, as described by Katz et al., 2007, J. Virol. 81:2592-2604, were utilized. TI-C cell clones were isolated by cell sorting as described by Katz et al., 2007, J. Virol. 81:2592-2604.
Analysis of GFP expression. GFP expression was quantitated by FACScan as described previously (Greger et al., 2005, J. Virol. 79:4610-4618; Katz et al., 2007, J. Virol. 81:2592-2604; Poleshko et al., 2008, J. Virol. 82:2313-2323).
Evidence for position-independent roles for HDAC1 and Daxx in retroviral reporter gene silencing. To determine if the integration sites of the retroviral DNA are determinants for the participation of specific host factors that control epigenetic silencing, a series of TI-C cell clones was examined. These clones were derived from a pool of cells in which the average GFP copy number was ca. 1 as measured by quantitative real-time PCR (Katz et al., 2007, J. Virol. 81:2592-2604; Poleshko et al., 2008, J. Virol. 82:2313-2323). […] As with the TI-C cell population, transfection with the HDAC1 siRNA pool phenocopied the TSA treatment (compare FIGS. 4A and B). Based on analyses of these clones, it was concluded that HDAC1 and, in most cases, Daxx are required for the maintenance of silencing at independent loci, but the integration site may modulate the extent of reactivation.

[2] = target: heterochromatin protein 1 gamma (HP1γ) (Homo sapiens (Human)) (UniProt Q13185); assay: cell-based or functional assay
UniProt Q13185, sequence (Q13185 whole entry): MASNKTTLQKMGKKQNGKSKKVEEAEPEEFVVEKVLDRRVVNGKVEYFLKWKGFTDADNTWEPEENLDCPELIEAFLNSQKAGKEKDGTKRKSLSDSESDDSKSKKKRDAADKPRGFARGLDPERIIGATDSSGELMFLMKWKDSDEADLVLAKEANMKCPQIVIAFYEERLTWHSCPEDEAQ

GFP-positive cells at 5 days postinfection (FACS) (% GFP-positive cells) [2]	Molecule	GFP reactivation in TI-C cell clones [1]
–	CC(/C=C/C(=O)NO)=C\[C@@H](C)C(=O)c1ccc(N(C)C)cc1 [TSA, trichostatin A]	induced GFP reactivation, but to various degrees
24	dominant negative form of HP1 (dnHP1) (from UniProt P83916 104-185)	–
